Reference: US20080269121A1, “Methods and Compositions Involving A1c Subunit of L-Type Calcium Channels in Smooth Muscle Cells” (The Board of Regents of the University of Texas System, priority 2005, published 2008)
“Also recorded” adds a separate entry of the source.

Assays:
[1] = system: human colonic circular muscle strips; assay: Muscle bath: contractile response of human colonic circular muscle strips; assay type: cell-based
Procedure: Muscle bath experiments. Pure circular muscle strips (2 mm×10 mm) are prepared from resected human colon segments. The strips are mounted in 5 ml baths filled with carbonated Krebs solution (in mM: 118 NaCl, 4.7 KCl, 2.5 CaCl2, 1 NaH2PO4, 1-2 MgCl2, 11 D-glucose, and 25 NaHCO3) at 37° C. (Siebenlist et al., 1994; Barnes and Karin, 1997). The muscle strips are equilibrated for 1 h at 1 g tension and then stretched until maximal response is obtained to 10^−4 m ACh. The bathing solution is replaced every 15 min. Contractions are measured by force transducers and analyzed by DATAQ (Akron, Ohio) software.
The protocol for transfection of sense and antisense oligonucleotides in freshly obtained muscle strips was similar to that in HCCSMC. The circular muscle layer was isolated from the fall thickness human colon, and sliced into 2 mm×10 mm muscle strips. The strips were incubated in RPMI 1640 without serum. The sense and antisense oligonucleotides (10 μM) were added into the medium for 24 h before incubation with 20 ng/mL TNFα for 24 h.

[2] = system: cAMP; assay: cAMP levels in HCCSMC; assay type: cell-based, human
Text: (§1) Primary cultures of HCCSMC: Human tissue was obtained from the descending and sigmoid colons with approval of the University of Texas Medical Branch Institutional Review Board from disease free margins of resected segments from patients undergoing surgery for colon cancer. The circular muscle layer was separated from the taenia coli and lamina propria with a tissue slicer. The circular muscle layer was collected in ice-cold HEPES buffer (in mM: 120 NaCl, 2.6 KH2S04, 4 KCl, 2 CaCl2, 0.6 MgCl2, 25 HEPES, 14 glucose and 2.1% essential amino acid mixture, pH 7.4). Two successive digestions with papain and collagenase, as described previously by Shi and Sarna, were used to disperse smooth muscle cells. The cells were cultured in RPMI 1640 (Gibco/Invitrogen, Carlsbad, Calif.) supplemented with 10% fetal bovine serum in the presence of 100 units/mL of penicillin G, 100 μg/mL of streptomycin sulfate and 0.25 μg/mL of amphoteracin B. The culture medium was changed every three days. Cells in passages 3 to 5 were used in all experiments. All cells were cultured in serum-free medium for at least 15 h prior to experiments to eliminate the possible effects of growth factors. […] The cultures of colonic smooth muscle cells retain their contractile phenotype. Each experiment used cells or muscle strips from at least three different subjects.

[3] = system: TNBS (trinitrobenzene sulfonic, acid)-induced colitis; settings: systemic bolus injections, mouse; cited from earlier work
[4] = system: HCCSMC; assay: Cytosolic free Ca^2+ measurement (fura-2 AM) in HCCSMC; assay type: cell-based, human; settings: treatment for 24 h, by
Procedure: Cytosolic free Ca^2+ measurement: Cytosolic calcium level ([Ca^2+]i) was measured in a wide-field imaging system at the UTMB core Optical Imaging Laboratory using the Ca^2+-sensitive fluorescent dye fura 2-AM (Molecular Probes, Eugene, Oreg.). HCCSMC cultured on cover slips were incubated with 1 μM fura 2-AM for 45 min at 37° C. in a modified HEPES buffer (pH 7.4) containing (in mM): 10 HEPES, 125 NaCl, 5 KCl, 1 CaCl2, 0.5 MgSO4, 5 glucose. Cover slips with cells were washed with fresh medium and mounted on the stage of a Nikon TE200 inverted microscope (Nikon Instruments, Lewisville, Tex.) equipped with a CoolSNAP HQ cooled-CCD monochrome digital camera (Roper Scientific, Tucson Ariz.). Cells were examined under a super-fluor 20×0.75 NA objective during exposure to alternating 340 and 380 nm excitation light (DG4 illuminator system, Sutter Instrument, Novato, Calif.), and the intensity of light emission at 510 nm was measured. The light intensities and their ratio, F340/F380, which reflects changes in Ca^2+ concentration, were followed simultaneously in several single cells in the field. The acquisition process was controlled by the Metafluor image acquisition software (Universal Imaging Corp. Downingtown, Pa.).

[5] = system: JNK/SAPK; assay: MAP kinase phosphorylation: JNK/SAPK; assay type: cell-based
[6] = system: α1C subunit of L-type Ca^2+ channels; assay: α1C protein expression (Western immunoblotting); assay type: cell-based, human
Text: as §1
Western immunoblotting. Each lane is loaded with 10 μg protein and size-separated on a 10% SDS polyacrylamide gel. After blotting, the nitrocellulose membranes are blocked with 10% non-fat dried milk at 4° C. overnight. The blots are incubated with appropriate dilution of the antibody at 4° C. overnight and appropriate dilution of designated secondary antibody at room temperature for 1 h. β-actin is used as internal control.

[7] = system: p38; assay: MAP kinase phosphorylation: p38; assay type: cell-based
[8] = system: α1C1b promoter; assay: α1C1b promoter luciferase reporter activity in HCCSMC; assay type: cell-based, human
Procedure: Transient cell transfections and luciferase activity. FuGENE 6 (Roche, Mannheim, Germany) is used to transfect luciferase-expressing pGL2 constructs in HCCSMC. The cells in passage 4 are seeded into 12-well plates (Costar, Acton, Mass.) and grown to 70% to 80% confluency. Transfections are carried out by incubation of cells in each well with 1.5 μl of FuGENE 6, 0.5 μg of pGL2 construct, and 0.125 μg of pSEAP2 Control Vector (BD Biosciences Clontech, Palo Alto, Calif.) for 24 h as per manufacturer's instructions. The pSEAP2 Control Vector is co-transfected for normalization of data. The transfected cells were treated with stimulus or medium control and harvested after 24 hours. Twenty μl of the supernatant of the cell lysates are taken for the measurement of luciferase activity by a luminometer (Promega, Madison, Wis.). The SEAP activity is measured with a Clontech SEAP detection kit by following the manufacturer's instructions.
Promoter constructs, 5′-deletions, and site-directed mutagenesis. The promoter constructs of hα1c1b are prepared by PCR amplification of human genomic DNA (Roche, Indianapolis, Ind.) and digested partially with Hind III (Promega, Madison, Wis.) using the FailSafe PCR kit (Epicentre, Madison, Wis.). The PCR product is subcloned into pDrive Cloning Vector with the PCR Cloning^plus kit (Qiagen, Valencia, Calif.) and SURE 2 supercompetent cells (Stratagene, La Jolla, Calif.) and subsequently transferred to the luciferase expression plasmid pGL2-Basic Vector (Promega, Madison, Wis.). The deletion constructs are made using the full length promoter construct as a template in PCR reactions. The same methods and kits are used to subclone the sequenced PCR products into the pDrive and pGL2 vector. The site-directed mutagenesis is carried out using QuikChange® II XL Site-Directed Mutagenesis Kit from Stratagene (La Jolla, Calif.), as per manufacturer's instructions.

vasoactive intestinal polypeptide [VIP]
effect on TNFα suppression of contractile response to ACh ([1]; muscle strips, treatment before/with TNFα): significantly reduces the suppression; also recorded: partially reversed the suppression | contractile response of circular muscle strips to ACh ([1]; strips incubated 24 h, organ bath): enhanced the contractile response to ACh and KCl; also recorded: increased their contractile response to ACh; also recorded: enhanced it | duration of elevated cAMP levels [2]: at least 24 h | intercellular cAMP levels ([2]; 24 h treatment): elevated throughout the 24 h period | MPO (myeloperoxidase) activity [3]: did not completely suppress | TNBS-induced diarrhea [3]: abrogated TNBS-induced diarrhea | macroscopic and microscopic inflammation [3]: reduced macroscopic and microscopic inflammation | Ca^2+ influx [4]: enhanced Ca^2+ influx | phosphorylation of JNK/SAPK [5]: time-dependently dephosphorylated | increase of α1C protein ([6]; adult human colonic circular smooth muscle cells): about 100% | effect on TNFα suppression of α1C protein ([6]; muscle strip tissue, FIG. 14 top): minimized | phosphorylation of p38 [7]: time-dependently dephosphorylated | α1C1b promoter reporter (luciferase) activity ([8]; substance by itself): enhanced in a concentration-dependent manner; also recorded: concentration-dependently increased; also recorded: enhanced promoter activity in normal cells | effect on suppression of α1C1b promoter activity by TNFα ([8]; with TNFα): significantly blocked this reduction; also recorded: partially blocked the suppression
